Reference: patent US20240148691A1, “Treatment of Hypertension-Related and Vascular Diseases” (The Medical College of Wisconsin, Inc., priority 2021, published 2024)
“Also recorded” adds a separate entry of the source.

Key:
KATP channels = test: Glibenclamide-induced arteriole constriction in diabetic rats; parameters: species or system rat
Description: The inventors hypothesized that SHetA2 acts by inhibiting p66Shc-induced activation of KATP channels in diabetic animals. Therefore, the inventors treated control and SHetA2 treated arterioles with increasing concentrations of glibenclamide, antidiabetic drug which binds and inhibits the ATP-sensitive potassium channel's KATP inhibitory subunit which causes increasing of intracellular Ca^2+ concentrations leading to arteriole constriction.

[1] = Blood pressure and body weight during long-term treatment of hypertensive rats; type: in vivo, rat
Method: To assess whether treatment with SHetA2 would reduce the systolic blood pressure in hypertensive rats, animals were treated for 18 weeks with either vehicle control or SHetA2.
(§1) SS rats were weaned at 3 weeks of age and transferred to 1% salt diet for additional 3 weeks before treatment. At 6 weeks of age, rats were either given vehicle control or SHetA2 at 60 mg/kg by oral gavage. Oral gavage was performed 3 times weekly every other day for a period of 18 weeks. […] Urine was collected from rats housed in metabolic cages for 1-2 hours, approximately 24 hours after last treatment after 6, 12 and 18 weeks of treatment. […] Vascular reactivity of renal afferent arterioles was measured using the juxtamedullary nephron technique approximately 24 hours after final treatment (18 weeks) (FIG. 7).

[2] = test system: hypertension-induced nephropathy; test: Urinary protein excretion in salt-sensitive hypertensive rats; type: in vivo, rat
Method: as §1
Hypertension-induced nephropathy causes excessive protein excretion in the urine.

[3] = test system: renal afferent arterioles; test: Renal afferent arteriole microvascular responses (juxtamedullary nephron technique) after chronic treatment of hypertensive SS rats; type: in vivo, rat
Method: (§2) Microvascular responses of renal afferent preglomerular arterioles to perfused pressure. Juxtamedullary nephron vasculature was isolated, and an afferent arteriole was monitored continuously by videomicroscopy. SS/BN2 refers to BN chromosome replacement into SS background. Thus, SS/BN2 are not expected to be salt-sensitive and represent a control for the SS strain.
Vascular reactivity of renal afferent arterioles was measured using the juxtamedullary nephron technique approximately 24 hours after final treatment (18 weeks) (FIG. 9). Remarkably, SHetA2 restored renal microvascular responses in hypertensive rats, as detected by response of afferent arterioles either to increasing perfusion pressure or to ATP, known mediator of afferent arteriolar autoregulatory responses (FIG. 8).
as §1

diabetic nephropathy = test: Urinary protein excretion in diabetic animals; type: in vivo, rat
Description: (§3) The inventors hypothesized that SHetA2 would be effective in preventing and treating diabetic nephropathy. Therefore, the inventors treated rats with diabetes induced by streptozotocin (STZ) with SHetA2. […] (FIGS. 20-21).

[4] = cited from earlier work
[5] = test system: renal afferent preglomerular arterioles; test: Renal afferent preglomerular arteriole microvascular responses, SHetA2 added in vitro; parameters: species or system rat
Description: as §2
Microvascular reactivity of renal blood vessels is reduced in two major causes of end stage renal disease: hypertension-induced nephropathy (HN) and diabetic nephropathy. One of the highlights of vascular dysfunction in HN is the loss of autoregulation of blood resistance vessels. Using rat model of salt-sensitive (SS) HN we have previously shown that overexpression of adaptor protein p66Shc is implicated in the loss of microvascular reactivity during the progression of HN (FIGS. 3, 5). In HN p66Shc is over-expressed in vascular smooth muscle cells of the walls of renal resistance arteries, including afferent arteriole (FIG. 4). p66Shc knockout restores the ability of afferent arteriole to contract in response to increased perfusion pressure and ATP (FIG. 5) and mitigates glomerular damage in SS rats on 1% salt diet. In this study, we tested ability of a flexible heteroarotinoid called Sulfur Heteroarotinoid A2 (SHetA2, pronounced Ess-Het-Aye-Two), known to inhibit p66Shc action, to prevent development and restore renal microvascular responses in hypertensive rats when added after the development of hypertension-induced nephropathy. […] Remarkably, SHetA2 prevented loss of microvascular reactivity and restored renal microvascular responses in hypertensive rats, as detected by response of afferent arterioles either to increasing perfusion pressure or to ATP, known mediator of afferent arteriolar autoregulatory responses (FIG. 6).

afferent arterioles = test: Renal microvascular responses in streptozotocin-induced diabetic rats; type: in vivo, rat; settings: for renal microvascular responses: diabetic animals
Description: as §3

SMILES: COc1ccc(Cl)cc1C(=O)NCCc1ccc(S(=O)(=O)NC(=O)NC2CCCCC2)cc1 [glibenclamide]
- arteriole constriction (KATP channels; control arterioles, increasing glibenclamide concentrations): caused constriction
- signs of diabetic nephropathy (KATP channels; diabetic p66ShcKO rats): not diabetic p66ShcKO rats
- signs of diabetic nephropathy (KATP channels; diabetic rats): effective in attenuating
- glibenclamide effect / arteriole constriction (KATP channels; diabetic rats / arterioles treated with SHetA2, increasing glibenclamide concentrations): not in SHetA2 treated arterioles; also recorded: lack of glibenclamide effect

SMILES: CC1(C)CC(C)(C)c2cc(NC(=S)Nc3ccc([N+](=O)[O-])cc3)ccc2S1 [SHetA2, Sulfur Heteroarotinoid A2]
- progression of hypertension / increase of blood pressure ([1]; 1% salt diet, long-term treatment): did not prevent; also recorded: lack of effect
- systolic blood pressure ([1]; hypertensive rats, 18 weeks treatment vs vehicle): did not significantly reduce
- body weight ([1]; long-term treatment): lack of effect
- urinary protein excretion ([2]; S36A salt-sensitive animals): reduces or prevents
- urinary protein excretion ([2]; wild type SS hypertensive rats, SHetA2 60 mg/kg oral gavage, vs control-treated rats, 60 mg/kg): statistically significant decrease; also recorded: significantly reduces
- urinary protein excretion ([2]; wild type SS hypertensive rats, SHetA2 60 mg/kg oral gavage, vs control-treated rats, listed as SHet2A): reduces or prevents
- renal microvascular responses of afferent arterioles to increasing perfusion pressure or ATP ([3]; hypertensive SS rats, 1% salt diet, SHetA2 60 mg/kg oral gavage 3 times weekly, 18 weeks, about 24 hours after final treatment, 60 mg/kg): restored
- renal damage ([3]; hypertensive rats): mitigates
- vessel diameter after chronic administration of SHetA2 ([3]; male and female rats (FIG. 17)): decrease
- urinary protein excretion (diabetic nephropathy): reduces or prevents
- effect on heart function ([4]; animal models, after months of treatment): does not have any detectable effect
- teratogenicity (birth defects) ([4]; animal models): does not cause
- toxicity ([4]; oral, doses 25-fold above the doses used in the rat hypertensive model): no toxicity
- vessel diameter in response to SHetA2 treatment ([5]; dose dependence (FIG. 14)): dose-dependent decrease
- renal microvascular responses in renal afferent preglomerular arterioles ([5]; in vitro, hypertensive rats (FIG. 6)): partially restored
- renal microvascular response ([5]; salt-sensitive rats with hypertension, dose dependence (FIG. 14)): dose-dependent increase
- development of microvascular damage (afferent arterioles; STZ diabetic rats): successfully prevented
- renal microvascular responses (afferent arterioles; acute treatment): increased
- renal microvascular responses (afferent arterioles; chronic treatment, oral gavage every other day): increased
- signs of diabetic nephropathy (dilation of afferent arterioles) (afferent arterioles; p66ShcKO rats treated with STZ): absence of effect
- signs of diabetic nephropathy (dilation of afferent arterioles) (afferent arterioles; rats treated with streptozotocin (STZ)): reduces or prevents
